# Laboratory results from ChEMBL document CHEMBL1154275, “Synthesis and biological evaluation of new heterocyclic quinolinones as anti-parasite and anti-HIV drug candidates” (Bioorg Med Chem Lett, 2009).
# Experiments:
# [1] = (§1) Cytotoxicity against human MT4 cells after 4 days by MTT assay; type: cell-based; details: MT4 cells
# [2] = system: Plasmodium falciparum; assay: Antimalarial activity against chloroquine, pyrimethamine, proguanil-resistant Plasmodium falciparum infected in human erythrocytes after 48 hrs by flow cytometry; type: functional, organism-based
# [3] = system: Human immunodeficiency virus 1; assay: Antiviral activity against HIV1 3B infected in human MT4 cells after 4 days by MTT assay; type: functional, organism-based
# [4] = system: THP-1; assay: Cytotoxicity against human THP1 cells after 72 hrs by propidium iodide staining-based flow cytometry; type: cell-based
# [5] = Selectivity index, ratio of IC50 for human THP1 cells to IC50 for Plasmodium falciparum; type: toxicity, cell-based, THP-1
# [6] = system: Trichomonas vaginalis; assay: Antitrichomonal activity against Trichomonas vaginalis TVR79 after 48 hrs by optical microscopy; type: functional, organism-based
# [7] = system: Human immunodeficiency virus 2; assay: Antiviral activity against HIV2 ROD infected in human MT4 cells after 4 days by MTT assay; type: functional, organism-based, ISOLATE ROD
# [8] = system: Leishmania donovani; assay: Antileishmanial activity against Leishmania donovani MHOM/IN/78/80/DD8 amastigote by alamar blue method; type: functional, organism-based
# [9] = system: Leishmania donovani; assay: Antileishmanial activity against Leishmania donovani MHOM/IN/78/80/DD8 promastigote by alamar blue method; type: functional, organism-based
# [10] = system: MT4; assay: as §1; type: cell-based; details: mt4, 96 h
# [11] = Plasmodium falciparum, 48 h, read-out: IC50
# [12] = Human immunodeficiency virus 1, 3B, MT4, 96 h, read-out: EC50
# [13] = Homo sapiens, THP-1, 72 h, read-out: IC50
# [14] = Trichomonas vaginalis, TVR79, 48 h, read-out: IC50
# [15] = Human immunodeficiency virus 2, ISOLATE ROD, MT4, 96 h, read-out: EC50
# [16] = Leishmania donovani, MHOM/IN/78/80/DD8, read-out: IC50
Structure (SMILES),CC50 at 96 h [1],"IC50 [2, 11]","EC50 [3, 12]","IC50 [4, 13]","selectivity index ([5]; human, THP-1 cells)","IC50 [6, 14]","EC50 [7, 15]","IC50 [8, 16]","IC50 [9, 16]",CC50 [10],IC50 [2],EC50 ([3]; mt4),IC50 ([4]; thp-1),selectivity index ([5]; thp-1),IC50 [6],EC50 ([7]; mt4),IC50 [8],IC50 [9]
CC1(C)OC(=O)C(=CNc2ccc([N+](=O)[O-])cc2)C(=O)O1,> 21.2 µM,40 µM,> 21.2 µM,> 250 µM,> 6.2,> 100 µM,> 21.2 µM,> 100 µM,> 100 µM,–,–,–,–,–,–,–,–,–
CC1(C)OC(=O)C(=CNc2ccc3ncsc3c2)C(=O)O1,> 39.1 µM,60 µM,> 39.1 µM,> 500 µM,> 8.3,> 200 µM,> 39.1 µM,40 µM,> 200 µM,–,–,–,–,–,–,–,–,–
O=c1cc[nH]c2ccc([N+](=O)[O-])cc12,> 356 µM,52 µM,> 356 µM,130 µM,2.5,> 200 µM,> 356 µM,> 200 µM,> 200 µM,–,–,–,–,–,–,–,–,–
O=c1cc[nH]c2ccc3ncsc3c12,–,–,–,–,–,–,–,–,–,ND(Insoluble),ND(Insoluble),ND(Insoluble),ND(Insoluble),ND(Insoluble),ND(Insoluble),ND(Insoluble),ND(Insoluble),ND(Insoluble)
CC1(C)OC(=O)C(=CNc2cccc(-c3nc4ccccc4s3)c2)C(=O)O1,> 190 µM,30 µM,> 190 µM,115 µM,4,> 200 µM,> 190 µM,> 200 µM,> 200 µM,–,–,–,–,–,–,–,–,–
CCOC(=O)C(=CNc1ccc([N+](=O)[O-])cc1)C(=O)OCC,≥ 250 µM,> 250 µM,≥ 198 µM,> 125 µM,–,> 125 µM,≥ 121 µM,> 100 µM,> 250 µM,–,–,–,–,Not Active,–,–,–,–
CC1(C)OC(=O)C(=CNc2ccc3[nH]c(=O)[nH]c3c2)C(=O)O1,> 412 µM,> 500 µM,> 412 µM,> 500 µM,–,> 200 µM,> 412 µM,> 200 µM,> 200 µM,–,–,–,–,Not Active,–,–,–,–
O=c1cc[nH]c2c([N+](=O)[O-])cccc12,> 71.6 µM,> 500 µM,> 71.6 µM,> 500 µM,–,> 200 µM,> 71.6 µM,> 200 µM,> 200 µM,–,–,–,–,Not Active,–,–,–,–
O=c1cc[nH]c2cc3c(cc12)OCCO3,> 356 µM,50 µM,> 356 µM,115 µM,2.3,> 200 µM,> 356 µM,> 200 µM,> 200 µM,–,–,–,–,–,–,–,–,–
Cc1nc2ccc3[nH]ccc(=O)c3c2s1,> 405 µM,–,> 405 µM,> 500 µM,–,> 200 µM,> 405 µM,> 200 µM,> 200 µM,–,–,–,–,–,–,–,–,–
O=c1cc[nH]c2ccc3nn[nH]c3c12,–,–,–,–,–,–,–,–,–,ND(Insoluble),ND(Insoluble),ND(Insoluble),ND(Insoluble),ND(Insoluble),ND(Insoluble),ND(Insoluble),ND(Insoluble),ND(Insoluble)
O=c1cc[nH]c2ccc3[nH]ncc3c12,–,–,–,–,–,–,–,–,–,ND(Insoluble),ND(Insoluble),ND(Insoluble),ND(Insoluble),ND(Insoluble),ND(Insoluble),ND(Insoluble),ND(Insoluble),ND(Insoluble)
CN(C)c1nc2cc3[nH]ccc(=O)c3cc2o1,> 324 µM,40 µM,> 324 µM,> 125 µM,> 3.1,> 125 µM,> 324 µM,> 100 µM,> 250 µM,–,–,–,–,–,–,–,–,–
O=c1cc[nH]c2c(-c3nc4ccccc4s3)cccc12,8.6 µM,> 500 µM,> 8.6 µM,> 500 µM,–,> 200 µM,≥ 1.4 µM,> 200 µM,> 200 µM,–,–,–,–,Not Active,–,–,–,–
Nc1ccc2[nH]ccc(=O)c2c1,≥ 631 µM,90 µM,> 631 µM,> 500 µM,> 5.5,> 200 µM,≥ 501 µM,> 200 µM,> 200 µM,–,–,–,–,–,–,–,–,–
Cc1nc2ccc3c(c(=O)ccn3C)c2s1,> 341 µM,> 250 µM,> 341 µM,115 µM,–,> 100 µM,> 341 µM,> 100 µM,> 100 µM,–,–,–,–,Not Active,–,–,–,–
CC1(C)OC(=O)C(=CNc2cccc([N+](=O)[O-])c2)C(=O)O1,> 251 µM,60 µM,> 251 µM,> 250 µM,> 4.1,> 100 µM,> 251 µM,> 100 µM,> 100 µM,–,–,–,–,–,–,–,–,–
CC1(C)OC(=O)C(=CNc2ccccc2[N+](=O)[O-])C(=O)O1,≥ 411 µM,> 500 µM,> 411 µM,> 500 µM,–,> 200 µM,≥ 260 µM,> 200 µM,> 200 µM,–,–,–,–,Not Active,–,–,–,–
CC1(C)OC(=O)C(=CNc2ccc3c(c2)OCCO3)C(=O)O1,> 428 µM,> 500 µM,> 428 µM,> 500 µM,–,> 200 µM,> 428 µM,> 200 µM,> 200 µM,–,–,–,–,Not Active,–,–,–,–
Cc1nc2ccc(NC=C3C(=O)OC(C)(C)OC3=O)cc2s1,> 317 µM,60 µM,> 317 µM,> 250 µM,> 4.1,> 100 µM,> 317 µM,> 200 µM,> 250 µM,–,–,–,–,–,–,–,–,–
CC1(C)OC(=O)C(=CNc2ccc3[nH]nnc3c2)C(=O)O1,> 68.1 µM,> 500 µM,> 68.1 µM,> 500 µM,–,> 200 µM,> 68.1 µM,> 200 µM,> 200 µM,–,–,–,–,Not Active,–,–,–,–
CC1(C)OC(=O)C(=CNc2ccccc2-c2nc3ccccc3s2)C(=O)O1,41.6 µM,> 250 µM,> 41.6 µM,> 250 µM,–,> 250 µM,> 41.6 µM,> 100 µM,> 250 µM,–,–,–,–,Not Active,–,–,–,–
CC1(C)OC(=O)C(=CNc2ccc3c(c2)OCO3)C(=O)O1,> 430 µM,10 µM,≥ 118 µM,250 µM,25,> 100 µM,> 430 µM,20 µM,> 100 µM,–,–,–,–,–,–,–,–,–
CC1(C)OC(=O)C(CNc2ccc3c(c2)CCC3)C(=O)O1,> 292 µM,> 500 µM,> 292 µM,> 500 µM,–,> 200 µM,> 292 µM,> 200 µM,> 200 µM,–,–,–,–,Not Active,–,–,–,–
CC1(C)OC(=O)C(=CNc2ccc3cn[nH]c3c2)C(=O)O1,> 436 µM,> 250 µM,> 436 µM,> 250 µM,–,> 100 µM,> 436 µM,> 100 µM,> 100 µM,–,–,–,–,Not Active,–,–,–,–
CN(C)c1nc2ccc(NC=C3C(=O)OC(C)(C)OC3=O)cc2o1,> 378 µM,40 µM,> 378 µM,> 250 µM,> 6.25,> 100 µM,> 378 µM,> 100 µM,> 100 µM,–,–,–,–,–,–,–,–,–
C[C@@H]1[C@H](O)[C@@H](C)/C=C/C=C/C=C/C=C/C=C/C=C/C=C/[C@H](O[C@@H]2O[C@H](C)[C@@H](O)[C@H](N)[C@@H]2O)C[C@@H]2O[C@](O)(C[C@@H](O)C[C@@H](O)[C@H](O)CC[C@@H](O)C[C@@H](O)CC(=O)O[C@H]1C)C[C@H](O)[C@H]2C(=O)O [AMPHOTERICIN B],–,–,–,–,–,–,–,0.1 µM,–,–,–,–,–,–,–,–,–,–
C[C@H]1c2cccc(O)c2C(=O)C2=C(O)[C@]3(O)C(=O)C(C(N)=O)=C(O)[C@@H](N(C)C)[C@@H]3[C@@H](O)[C@@H]21 [DOXYCYCLINE],–,–,–,20 µM,3.1,–,–,–,–,–,–,–,–,–,–,–,–,–
Cc1ncc([N+](=O)[O-])n1CCO [METRONIDAZOLE],–,–,–,> 500 µM,–,2.7 µM,–,–,–,–,–,–,–,–,–,–,–,–
